The record followed here is PubChem BioAssay (NCI).

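Method: 48-hour compound exposure of cells in 96-well plates, five concentrations, linear interpolation of endpoints. TGI marks complete inhibition of growth.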

Holding throughout (assay): NCI-60 cell line screen, 48 h
The test system of experiment [1] is U251 CNS.
In experiment [2] the test system is K-562 leukemia.
In experiment [3] the test system is OVCAR-4 ovarian.
The test system of experiment [4] is A498 renal.
The test system of experiment [5] is A549 NSCLC.
Experiment [6] relates to SK-OV-3 ovarian.
The test system of experiment [7] is CAKI-1 renal.
Experiment [8] concerns TK-10 renal.
Experiment [9] relates to NCI-H460 lung.
In experiment [10] the test system is HOP-62 NSCLC.
Experiment [11] has as its system HT29 colon.
For experiment [12], the system named is OVCAR-3 ovarian.
The subject of experiment [13] is SK-MEL-2 melanoma.
Experiment [14] relates to UACC-62 melanoma.

For `CN(/N=C\c1ccnc2ccccc12)c1ccccc1`, the TGI is 84.9 µM in experiment [1]; 51.4 µM in experiment [2]; 89.4 µM in experiment [3]; 54.6 µM in experiment [4]; 53.1 µM in experiment [5]; 66 µM in experiment [6]. In addition, the TGI in [7] was 91.7 µM; in [8] it was 98.7 µM; in experiment [9], 55.5 µM; in experiment [10], 81.6 µM; in [11], 35.9 µM; in [12], 44.2 µM. Besides, the figures for the TGI in [13] and in experiment [14] were 38.5 µM and 37.2 µM, respectively.

In the case of `O=C(CC1(O)C(=O)Nc2c(Cl)cc(Cl)cc21)c1ccc(F)cc1` (stereo unspecified), the TGI in experiment [1] is 97.1 µM; in experiment [3] it was 52.6 µM; in experiment [5], above 100 µM; in experiment [6], above 100 µM; in [7], above 100 µM; in experiment [8] it was above 100 µM. Besides, the TGI was above 100 µM in experiment [9]; above 100 µM in experiment [10]; 70.1 µM in experiment [11]; 68.6 µM in [12]; above 100 µM in [13]; above 100 µM in experiment [14].

`CC(=O)NNc1nc(C)c(C(=O)/C=C/c2ccc(Cl)c(Cl)c2)s1`: the TGI in experiment [1], in [2], in experiment [4], in experiment [5], in [6] and in experiment [7] was above 100 µM each time. Further, the TGI in experiment [8], in [9], in [10], in experiment [11], in experiment [12] and in [13] was above 100 µM throughout. Further, the TGI in experiment [14] is above 100 µM.

As for `COC(=O)C(c1ccc(OC)cc1)N1C(=O)[C@@H](NC(=O)c2ccccc2)[C@H]1[C@@H](C)O` (stereo partly specified), the TGI in experiment [1], in experiment [2], in experiment [3], in experiment [5], in [6] and in [8] was above 100 µM in each case. Besides, the TGI in [9], in experiment [10], in [11], in [12], in [13] and in experiment [14] was above 100 µM in each case.

Regarding `CCCCCCCCCCCCC(Br)C(C)=O` (stereo unspecified), the TGI in [1], in [3], in [4], in experiment [5], in [6] and in experiment [8] was above 100 µM in each case. Further, the TGI in [9], in experiment [10], in experiment [11], in experiment [12], in experiment [13] and in [14] was above 100 µM in each case.

Take `CC1=C(C(=O)CC(=O)C(=O)Nc2ccc(C)c(C)c2)Sc2ccccc2N1`: the TGI in experiment [1], in experiment [3], in experiment [4], in experiment [5], in experiment [6] and in experiment [7] was above 100 µM throughout. The TGI in experiment [8], in [9], in experiment [10], in experiment [11], in experiment [12] and in experiment [14] was above 100 µM throughout.

For the compound `COc1ccc(/C=C2\CCC(CCN3CCOCC3)C2=O)cc1` (stereo unspecified), the TGI in experiment [2], in [3], in experiment [4], in experiment [5], in [7] and in experiment [8] was above 100 µM each time. The TGI in experiment [9], in experiment [10], in experiment [11], in experiment [12], in [13] and in experiment [14] was above 100 µM in each case.

As for `COC(=O)C(=O)C(/C(=N/N)C(=O)Nc1ccccc1C(N)=O)c1nc2ccc([N+](=O)[O-])cc2[nH]c1=O` (stereo unspecified), the TGI in [1], in [2], in [3], in [4], in experiment [5] and in experiment [7] was above 100 µM each time. The TGI in experiment [8], in experiment [9], in [10], in experiment [11], in experiment [12] and in experiment [13] was above 100 µM in each case. The TGI in experiment [14] was above 100 µM.

Consider `Cc1nc2c3c(ccc2[nH]c1=O)C(=O)c1ccccc1C3=O`, for which the TGI in experiment [1], in experiment [2], in [3], in experiment [4], in [5] and in experiment [6] was above 100 µM throughout. The TGI in [7], in experiment [8], in [9], in [10], in experiment [11] and in experiment [12] was above 100 µM in each case. In addition, the TGI in experiment [14] was above 100 µM.

As for `C/C(=N/O)c1sc(-c2nc(C)c(/C(C)=N\O)s2)nc1C`, the TGI in experiment [1], in [2], in experiment [3], in experiment [4], in experiment [5] and in [6] was above 100 µM each time. Moreover, the TGI in [7], in experiment [11], in experiment [12] and in [14] was above 100 µM in each case.

Regarding `COc1ccc(/C=C/C(=O)c2sc(-c3cccnc3)nc2C)cc1`, the TGI in [1], in [2], in experiment [4], in experiment [5], in [6] and in [7] was above 100 µM in each case. In addition, the TGI in [8] is above 100 µM; in experiment [9], above 100 µM; in [10], above 100 µM; in experiment [11], above 100 µM; in experiment [12] it was 88.3 µM; in [13], above 100 µM. In addition, the TGI in [14] was above 100 µM.
